Type in all cases: physicochemical
Data set [1] can be described thus: Change of absorbance at maximum absorption wavelength after reaction with reactive oxygen species (Example 2). As to conditions: 10 μM dye in 0.1 M phosphate buffer; all reactive oxygen species (hydroxyl radical, peroxynitrite, hypochlorite ion, superoxide anion); FIG. 2. The procedure:
(§1) Cy5, Cy7, Compound 2 (cyanine compound constituting the second cyanine compound residue) and Compound 3 (cyanine compound constituting the first cyanine compound residue), the latter two of which were obtained above, were reacted with hydroxyl radical, peroxynitrite, hypochlorite ion, and superoxide anion, and change of absorbance at the maximum absorption wavelength was measured. For the measurement, 10 μM solutions of Cy5, Cy7, Compound 2, and Compound 3 in 0.1 M phosphate buffer were prepared, and the measurement was performed with the prepared solutions under the following conditions.
Hydrogen peroxide and iron(II) perchlorate were added to final concentrations of 1 mM and 50 μM, respectively.
Peroxynitrite was added to a final concentration of 10 μM.
Hypochlorite ions were added to a final concentration of 10 μM.
(§2) Xanthine oxidase and xanthine were added to final concentrations of 4 mU and 33 μM, respectively.
(§3) In the graph, the test results for those reactive oxygen species are indicated in the order of Cy5, Compound 2, Cy7, and Compound 3 from the left.

The nature of data set [2]: Oxidation potential (Ep) of cyanine dyes, saturated calomel electrode as reference. Conditions: saturated calomel electrode (SCE) as reference electrode.
The nature of data set [3]: Change of absorbance at maximum absorption wavelength after reaction with superoxide anion (Example 2). As to conditions: 10 μM dye in 0.1 M phosphate buffer; xanthine oxidase 4 mU, xanthine 33 μM; FIG. 2. How it is done: as §1, §2, §3

As to `CC1(C)C(/C=C/C=C/C=C2/N(CCC(=O)O)c3ccc(S(=O)(=O)O)cc3C2(C)C)=[N+](CCC(=O)O)c2ccc(S(=O)(=O)O)cc21` [Compound 2], in data set [1], the “Decrease of absorbance at maximum absorption wavelength upon addition of reactive oxygen species” value (shortened to “Decrease … of reactive oxygen species”) is reported as “the smallest decrease of absorbance”. The compound further displayed an Ep in data set [2] of 0.658 V vs SCE. Further, the “Decrease of absorbance at maximum absorption wavelength for superoxide anion” value in data set [3] was “no decrease of absorbance”.

In the case of `CN1/C(=C/C=C2\CCCC(/C=C/C3=[N+](C)c4ccccc4C3(C)C)=C2SCCC(=O)O)C(C)(C)c2ccccc21` [Compound 3], in data set [1], the “Decrease … of reactive oxygen species” value is “larger decrease of absorbance than did Cy7”. Besides, the Ep in data set [2] was 0.333 V vs SCE.

As to `CCN1C(=CC=CC=CC=CC2=[N+](CCCCCC(=O)O)c3ccc(S(=O)(=O)O)cc3C2(C)C)C(C)(C)c2cc(S(=O)(=O)[O-])ccc21` [Cy7, reference compound], the “Decrease … of reactive oxygen species” value in data set [1] is “larger decrease of absorbance than did Cy5”. The compound also yielded an Ep in data set [2] of 0.476 V vs SCE.

In data set [2], Cy5 [reference compound] showed an Ep of 0.516 V vs SCE.
